# Experimental data taken from patent US20190269752A1, “Methods for the Prevention or Treatment of Epilepsy” (Duke University, priority 2018, published 2019).
# Where a SMILES comes first, the peptide text is derived from it. [ ]: non-standard residue; d: D form. pY = N[C@@H](Cc1ccc(OP(=O)(O)O)cc1)C(=O)O
# Key:
# [1] = tested on: epileptic animals (KA-SE); experiment: Spontaneous recurrent seizures (video-EEG) after kainic acid-induced status epilepticus (KA-SE model of TLE); type: in vivo, mice; settings: 20 mg/kg IP twice daily for two weeks
# Text: (§1) Determining whether pY816 may be beneficial in epileptic animals required modification of our study of the kainic acid (KA)-status epilepticus (SE) model. To more closely mimic the clinical scenario in which patients seek medical attention for established TLE, we induced KA-SE and then conducted video-EEG recordings to detect spontaneous recurrent seizures during baseline periods of two to four weeks until they developed TLE prior to treating with pY816 peptide. In contrast to just three days of treatment with pY816 deployed in previous studies, we sought a more prolonged treatment with pY816 for the current experiments, namely two weeks. The intravenous route of administration used for three days in the prior studies was not feasible for two weeks, leading us to ask whether treatment via intraperitoneal route could inhibit activation of PLCγ1. We used the phosphorylation of residue Y783 of PLCγ1 detected on western blot of brain lysates as a surrogate measure of PLCγ1 activation.
# Having verified that intraperitoneal administration of pY816 inhibited PLCγ1 activation, we then asked whether treatment with pY816 initiated after onset of epilepsy and continued for two weeks would reduce the severity of epilepsy or even induce a remission. Towards that end, we induced KA-SE but then followed the animals for several weeks until they developed TLE as assessed by detection of SRS in continuous video-EEG recordings. We quantified the number of SRS in each animal by blinded review of video-EEG recordings during three distinct two week epochs (FIG. 8): a) baseline; b) treatment with pY816 (n=9) or Scr control (n=6), 20 mg/kg IP twice daily for two weeks (on Tx); c) following termination of treatment (Post Tx). As noted in FIG. 8, following induction of status epilepticus induced by infusion of kainic acid into amygdala (Gu et al 2015) animals underwent continuous video-EEG recording to detect spontaneous recurrent seizures. Following baseline recording of two weeks, animals were treated with either pY816 or Scr control peptide (20 mg/kg) twice daily for two weeks (Day 15-28). Video-EEG recording continued for two weeks following termination of treatment (Post-treatment).
# Results are shown in FIG. 9, where each symbol represents the number of seizures experienced by a given animal during Baseline, Treatment (Tx), or Post-treatment (Post Tx) periods. Horizontal bars designate median. Treatment (Tx) consisted of either pY816 or Scr control given 20 mg/kg twice daily for two weeks. Note that seizure detection was performed by analyses of video-EEG recordings by two blinded investigators.
# Antiseizure drugs in current clinical use provide symptomatic relief of seizures in many but not all patients, but seizures typically recur upon cessation of the drug. To verify that similar findings occur in our animal model, we tested the effect of an antiseizure drug in current clinical use in our model (carbamazepine). We infused additional animals with KA and assessed the occurrence of SRS with continuous video-EEG monitoring for several weeks. […] Thus, like TLE in humans, continuous treatment with an antiseizure drug suppresses seizures, yet seizures recur upon discontinuation of treatment.
# PLCγ1 = molecular target: T1, PLCγ1 (Mus musculus, UniProt Q62077); experiment: Inhibition of PLCγ1 activation: western blot of p-PLCγ1 (pY783)/PLCγ1 in hippocampal lysates after intraperitoneal injection; type: in vivo; settings: single dose 20 mg/kg i.p., wild type mice, hippocampal lysates at 3 h; dose dependent (10 or 20 mg/kg)
# T1 construct: from tissue; host or cells: hippocampus of adult wild type mice
# T1 sequence (Q62077 1-1302): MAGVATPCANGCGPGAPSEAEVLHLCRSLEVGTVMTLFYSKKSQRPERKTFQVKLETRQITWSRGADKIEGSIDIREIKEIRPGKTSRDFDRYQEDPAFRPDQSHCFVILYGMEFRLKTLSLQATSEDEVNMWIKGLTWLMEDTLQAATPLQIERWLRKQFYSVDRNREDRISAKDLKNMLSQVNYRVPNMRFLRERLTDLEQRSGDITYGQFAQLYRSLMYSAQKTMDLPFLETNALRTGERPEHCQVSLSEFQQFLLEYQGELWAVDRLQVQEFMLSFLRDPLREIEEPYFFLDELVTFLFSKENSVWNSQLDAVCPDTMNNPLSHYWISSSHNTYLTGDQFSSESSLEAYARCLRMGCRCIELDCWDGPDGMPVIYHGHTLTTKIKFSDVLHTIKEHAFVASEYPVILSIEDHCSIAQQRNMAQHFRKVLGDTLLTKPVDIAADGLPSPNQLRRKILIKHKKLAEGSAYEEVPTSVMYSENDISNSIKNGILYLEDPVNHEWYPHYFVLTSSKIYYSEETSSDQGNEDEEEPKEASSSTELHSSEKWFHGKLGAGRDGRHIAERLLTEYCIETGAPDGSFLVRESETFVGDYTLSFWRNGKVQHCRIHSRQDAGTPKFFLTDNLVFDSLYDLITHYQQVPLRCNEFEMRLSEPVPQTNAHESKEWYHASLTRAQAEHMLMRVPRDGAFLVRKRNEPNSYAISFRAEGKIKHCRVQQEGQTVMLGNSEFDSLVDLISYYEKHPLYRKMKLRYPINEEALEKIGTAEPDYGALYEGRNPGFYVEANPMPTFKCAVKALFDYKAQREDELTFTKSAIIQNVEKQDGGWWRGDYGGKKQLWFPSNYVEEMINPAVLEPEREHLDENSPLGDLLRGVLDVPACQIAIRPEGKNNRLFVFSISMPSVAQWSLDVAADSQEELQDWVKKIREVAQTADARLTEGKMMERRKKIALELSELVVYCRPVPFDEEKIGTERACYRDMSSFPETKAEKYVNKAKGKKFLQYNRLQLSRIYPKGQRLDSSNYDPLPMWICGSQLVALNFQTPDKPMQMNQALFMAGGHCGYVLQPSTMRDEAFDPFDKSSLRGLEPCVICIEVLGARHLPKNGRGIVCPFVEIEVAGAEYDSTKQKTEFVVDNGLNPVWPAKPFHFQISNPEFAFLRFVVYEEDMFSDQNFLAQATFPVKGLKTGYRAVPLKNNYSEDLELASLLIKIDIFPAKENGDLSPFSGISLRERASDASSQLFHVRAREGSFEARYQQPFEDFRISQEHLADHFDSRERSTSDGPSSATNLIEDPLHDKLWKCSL
# Text: as §1
# Hippocampal lysates (30-40 μg) were subjected to SDS_PAGE and western blotting. The blots were probed with antibodies specifically recognizing p-PLCγ1 (pY783) (a surrogate for activation of PLCγ1) and PLCγ1.
smiles,measurement,setting,value
CC[C@H](C)[C@H](NC(=O)[C@H](CC(=O)O)NC(=O)[C@H](CC(C)C)NC(=O)[C@H](Cc1ccc(OP(=O)(O)O)cc1)NC(=O)[C@@H](NC(=O)[C@@H]1CCCN1C(=O)[C@H](CO)NC(=O)[C@H](C)NC(=O)[C@H](CCCCN)NC(=O)[C@H](C)NC(=O)[C@H](CC(C)C)NC(=O)[C@H](CC(N)=O)NC(=O)[C@H](CCC(N)=O)NC(=O)[C@H](CC(C)C)NC(=O)[C@H](CCCNC(=N)N)NC(=O)[C@H](CCCNC(=N)N)NC(=O)[C@H](CCCNC(=N)N)NC(=O)[C@H](CCC(N)=O)NC(=O)[C@H](CCCNC(=N)N)NC(=O)[C@H](CCCNC(=N)N)NC(=O)[C@H](CCCCN)NC(=O)[C@H](CCCCN)NC(=O)[C@H](CCCNC(=N)N)NC(=O)CNC(=O)[C@@H](N)Cc1ccc(O)cc1)C(C)C)C(=O)O [pY816] (H-YGRKKRRQRRRLQNLAKASPV[pY]LDI-OH),Overt untoward effects during or following treatment,[1],No overt untoward effects were detected
same,Inhibition of PLCγ1 activation (reduction of p-PLCγ1 (pY783)/PLCγ1 ratio versus Scr),PLCγ1,~60%
